Measured values published in paper PMC6414696 (mBio, 2019).
Converted amounts (≈) assume the structure as drawn.

Key:
[1] = system: A. baumannii clinical isolates; test: Broth microdilution MIC susceptibility testing against carbapenems; format: cell-based, Acinetobacter baumannii
[2] = system: OXA-24/40; conditions: cited from earlier work
[3] = system: OXA-23; conditions: cited from earlier work
[4] = system: OXA 24/40; conditions: cited from earlier work
[5] = system: A. baumannii ARC5955; test: Neutropenic murine thigh infection model; format: in vivo; conditions: thigh tissue, CD-1 mice, 24 h after initiation of therapy, 40 mg/kg SC/q24h; for Change in log10 CFU/g: 40 mg/kg

## C[C@@H](O)[C@H]1C(=O)N2C(C(=O)O)=C(S[C@@H]3CN[C@H](C(=O)N(C)C)C3)[C@H](C)[C@H]12 [Meropenem]
[1]; 72 WRAMC isolates (seventeen of 72)
  isolates resistant (R ≥ 8 according to CLSI): 24%
[1]; Acinetobacter baumannii
  MIC50: 1 µg/mL (≈ 2.61 µM)
  MIC90: 32 µg/mL (≈ 83.4 µM)
[1]; Acinetobacter baumannii, strain AB001
  MIC: 1 µg/mL (≈ 2.61 µM)
[1]; Acinetobacter baumannii, strain AB002
  MIC: 2 µg/mL (≈ 5.22 µM)
[1]; Acinetobacter baumannii, strain AB003
  MIC: 2 µg/mL (≈ 5.22 µM)
[1]; Acinetobacter baumannii, strain AB004
  MIC: 2 µg/mL (≈ 5.22 µM)
[1]; Acinetobacter baumannii, strain AB005
  MIC: 1 µg/mL (≈ 2.61 µM)
[1]; Acinetobacter baumannii, strain AB006
  MIC: 4 µg/mL (≈ 10.4 µM)
[1]; Acinetobacter baumannii, strain AB007
  MIC: 0.5 µg/mL (≈ 1.3 µM)
[1]; Acinetobacter baumannii, strain AB008
  MIC: 1 µg/mL (≈ 2.61 µM)
[1]; Acinetobacter baumannii, strain AB009
  MIC: 1 µg/mL (≈ 2.61 µM)
[1]; Acinetobacter baumannii, strain AB010
  MIC: 1 µg/mL (≈ 2.61 µM)
[1]; Acinetobacter baumannii, strain AB011
  MIC: 1 µg/mL (≈ 2.61 µM)
[1]; Acinetobacter baumannii, strain AB012
  MIC: 1 µg/mL (≈ 2.61 µM)
[1]; Acinetobacter baumannii, strain AB013
  MIC: 1 µg/mL (≈ 2.61 µM)
[1]; Acinetobacter baumannii, strain AB014
  MIC: 1 µg/mL (≈ 2.61 µM)
[1]; Acinetobacter baumannii, strain AB015
  MIC: 2 µg/mL (≈ 5.22 µM)
[1]; Acinetobacter baumannii, strain AB016
  MIC: 0.5 µg/mL (≈ 1.3 µM)
[1]; Acinetobacter baumannii, strain AB017
  MIC: 0.5 µg/mL (≈ 1.3 µM)
[1]; Acinetobacter baumannii, strain AB018
  MIC: 0.5 µg/mL (≈ 1.3 µM)
[1]; Acinetobacter baumannii, strain AB019
  MIC: 0.25 µg/mL (≈ 0.652 µM)
[1]; Acinetobacter baumannii, strain AB020
  MIC: 0.5 µg/mL (≈ 1.3 µM)
[1]; Acinetobacter baumannii, strain AB021
  MIC: 0.5 µg/mL (≈ 1.3 µM)
[1]; Acinetobacter baumannii, strain AB022
  MIC: 0.5 µg/mL (≈ 1.3 µM)
[1]; Acinetobacter baumannii, strain AB023
  MIC: 2 µg/mL (≈ 5.22 µM)
[1]; Acinetobacter baumannii, strain AB024
  MIC: 0.5 µg/mL (≈ 1.3 µM)
[1]; Acinetobacter baumannii, strain AB025
  MIC: 0.5 µg/mL (≈ 1.3 µM)
[1]; Acinetobacter baumannii, strain AB026
  MIC: 1 µg/mL (≈ 2.61 µM)
[1]; Acinetobacter baumannii, strain AB027
  MIC: 0.5 µg/mL (≈ 1.3 µM)
[1]; Acinetobacter baumannii, strain AB028
  MIC: 0.5 µg/mL (≈ 1.3 µM)
[1]; Acinetobacter baumannii, strain AB029
  MIC: 0.5 µg/mL (≈ 1.3 µM)
[1]; Acinetobacter baumannii, strain AB030
  MIC: 1 µg/mL (≈ 2.61 µM)
[1]; Acinetobacter baumannii, strain AB031
  MIC: 1 µg/mL (≈ 2.61 µM)
[1]; Acinetobacter baumannii, strain AB032
  MIC: 0.5 µg/mL (≈ 1.3 µM)
[1]; Acinetobacter baumannii, strain AB033
  MIC: 1 µg/mL (≈ 2.61 µM)
[1]; Acinetobacter baumannii, strain AB034
  MIC: 1 µg/mL (≈ 2.61 µM)
[1]; Acinetobacter baumannii, strain AB035
  MIC: 0.25 µg/mL (≈ 0.652 µM)
[1]; Acinetobacter baumannii, strain AB036
  MIC: 0.5 µg/mL (≈ 1.3 µM)
[1]; Acinetobacter baumannii, strain AB037
  MIC: 0.25 µg/mL (≈ 0.652 µM)
[1]; Acinetobacter baumannii, strain AB038
  MIC: 1 µg/mL (≈ 2.61 µM)
[1]; Acinetobacter baumannii, strain AB039
  MIC: 1 µg/mL (≈ 2.61 µM)
[1]; Acinetobacter baumannii, strain AB040
  MIC: 0.5 µg/mL (≈ 1.3 µM)
[1]; Acinetobacter baumannii, strain AB041
  MIC: 0.5 µg/mL (≈ 1.3 µM)
[1]; Acinetobacter baumannii, strain AB042
  MIC: 4 µg/mL (≈ 10.4 µM)
[1]; Acinetobacter baumannii, strain AB043
  MIC: 16 µg/mL (≈ 41.7 µM)
[1]; Acinetobacter baumannii, strain AB044
  MIC: 8 µg/mL (≈ 20.9 µM)
[1]; Acinetobacter baumannii, strain AB045
  MIC: 8 µg/mL (≈ 20.9 µM)
[1]; Acinetobacter baumannii, strain AB046
  MIC: 16 µg/mL (≈ 41.7 µM)
[1]; Acinetobacter baumannii, strain AB047
  MIC: 8 µg/mL (≈ 20.9 µM)
[1]; Acinetobacter baumannii, strain AB048
  MIC: 16 µg/mL (≈ 41.7 µM)
[1]; Acinetobacter baumannii, strain AB049
  MIC: 32 µg/mL (≈ 83.4 µM)
[1]; Acinetobacter baumannii, strain AB050
  MIC: 16 µg/mL (≈ 41.7 µM)
[1]; Acinetobacter baumannii, strain AB051
  MIC: 1 µg/mL (≈ 2.61 µM)
[1]; Acinetobacter baumannii, strain AB052
  MIC: 2 µg/mL (≈ 5.22 µM)
[1]; Acinetobacter baumannii, strain AB053
  MIC: 2 µg/mL (≈ 5.22 µM)
[1]; Acinetobacter baumannii, strain AB054
  MIC: 32 µg/mL (≈ 83.4 µM)
[1]; Acinetobacter baumannii, strain AB055
  MIC: 8 µg/mL (≈ 20.9 µM)
[1]; Acinetobacter baumannii, strain AB056
  MIC: 16 µg/mL (≈ 41.7 µM)
[1]; Acinetobacter baumannii, strain AB057
  MIC: 32 µg/mL (≈ 83.4 µM)
[1]; Acinetobacter baumannii, strain AB058
  MIC: 2 µg/mL (≈ 5.22 µM)
[1]; Acinetobacter baumannii, strain AB059
  MIC: 32 µg/mL (≈ 83.4 µM)
[1]; Acinetobacter baumannii, strain AB060
  MIC: 32 µg/mL (≈ 83.4 µM)
[1]; Acinetobacter baumannii, strain AB061
  MIC: 32 µg/mL (≈ 83.4 µM)
[1]; Acinetobacter baumannii, strain AB062
  MIC: 64 µg/mL (≈ 167 µM)
[1]; Acinetobacter baumannii, strain AB063
  MIC: 0.5 µg/mL (≈ 1.3 µM)
[1]; Acinetobacter baumannii, strain AB064
  MIC: 0.25 µg/mL (≈ 0.652 µM)
[1]; Acinetobacter baumannii, strain AB065
  MIC: 32 µg/mL (≈ 83.4 µM)
[1]; Acinetobacter baumannii, strain AB066
  MIC: 0.25 µg/mL (≈ 0.652 µM)
[1]; Acinetobacter baumannii, strain AB067
  MIC: 0.25 µg/mL (≈ 0.652 µM)
[1]; Acinetobacter baumannii, strain AB068
  MIC: 1 µg/mL (≈ 2.61 µM)
[1]; Acinetobacter baumannii, strain AB069
  MIC: 1 µg/mL (≈ 2.61 µM)
[1]; Acinetobacter baumannii, strain AB070
  MIC: 2 µg/mL (≈ 5.22 µM)
[1]; Acinetobacter baumannii, strain AB071
  MIC: 0.5 µg/mL (≈ 1.3 µM)
[1]; Acinetobacter baumannii, strain AB072
  MIC: 0.25 µg/mL (≈ 0.652 µM)
[1]; Acinetobacter baumannii, strain CCF 1MR
  MIC: > 8 µg/mL
[1]; Acinetobacter baumannii, strain CCF 2MR
  MIC: > 8 µg/mL
[1]; Acinetobacter baumannii, strain CCF 3MR
  MIC: > 8 µg/mL
[1]; Acinetobacter baumannii, strain CCF 4MR
  MIC: > 8 µg/mL
[1]; Acinetobacter baumannii, strain CCF 5MR
  MIC: > 8 µg/mL
[1]; Acinetobacter baumannii, strain CCF 6MR
  MIC: > 8 µg/mL
[1]; Acinetobacter baumannii, strain CCF 7MR
  MIC: > 8 µg/mL
[1]; Acinetobacter baumannii, strain CCF 8MR
  MIC: > 8 µg/mL
[1]; Acinetobacter baumannii, strain UH AB202
  MIC: > 8 µg/mL
[1]; Acinetobacter baumannii, strain UH AB461
  MIC: > 8 µg/mL
[1]; Acinetobacter baumannii, strain UH AB477
  MIC: > 8 µg/mL
[1]; Acinetobacter baumannii, strain UH AB487
  MIC: > 8 µg/mL
[1]; Acinetobacter baumannii, strain UH AB489
  MIC: > 8 µg/mL
[1]; Acinetobacter baumannii, strain UH AB490
  MIC: > 8 µg/mL
[1]; Acinetobacter baumannii, strain UH AB491
  MIC: > 8 µg/mL
[1]; Acinetobacter baumannii, strain UH AB636
  MIC: > 8 µg/mL
[1]; Acinetobacter baumannii, strain UH AB660
  MIC: > 8 µg/mL
[1]; Acinetobacter baumannii, strain UH AB667
  MIC: > 8 µg/mL
[1]; Acinetobacter baumannii, strain VA-432
  MIC: 64 µg/mL (≈ 167 µM)
[1]; Acinetobacter baumannii, strain VA-433
  MIC: 32 µg/mL (≈ 83.4 µM)
[1]; Acinetobacter baumannii, strain VA-434
  MIC: 64 µg/mL (≈ 167 µM)
[1]; Acinetobacter baumannii, strain VA-435
  MIC: 64 µg/mL (≈ 167 µM)
[1]; Acinetobacter baumannii, strain VA-436
  MIC: 64 µg/mL (≈ 167 µM)
[1]; Acinetobacter baumannii, strain VA-437
  MIC: 32 µg/mL (≈ 83.4 µM)
[1]; Acinetobacter baumannii, strain VA-438
  MIC: 32 µg/mL (≈ 83.4 µM)
[1]; Acinetobacter baumannii, strain VA-505
  MIC: 32 µg/mL (≈ 83.4 µM)

## N#CC1CC[C@@H]2CN1C(=O)N2OS(=O)(=O)O (some centres unmarked) [WCK 4234]
[2]
  k2/Ki: 9.6 ± 1 × 10^3 M^−1 s^−1
[3]
  k2/Ki: 1.7 ± 0.2 × 10^4 M^−1 s^−1

## CC1=C[C@@H](C(N)=O)N2C[C@@H]1N(OS(=O)(=O)O)C2=O [compound 3]
[4]
  IC50: 360 nM

## Colistin
[5]
  Log10 CFU/g: 5.3 log10 CFU/g
  Change in log10 CFU/g: −1.4 log10 CFU/g
[5]; listed as colistin
  Change in log10 CFU/g: −1.36 log10 CFU/g
